Data on 21 compounds can be found in the RepoRT retention time repository (doi:10.1039/c4mb00346b).

A short description of the series: HILIC, Merck SeQuant ZIC-pHILIC, 150 × 2.1 mm, 5 µm, 0.1 mL/min, estimated dead time 3.3 min; A: acetonitrile; B: water + 10 mM ammonium carbonate; gradient (min/%B) 0/20 30/80. The following applies: stereoisomer not certain.
For the compound `O=C(O)CCC(=O)O` [Succinate], the LC retention time was 12.6 min.
The result for `NCCS(=O)(=O)O` [Taurine] reads 12.1 min.
As to `CC(O)C(N)C(=O)O` (stereo unspecified) [Threonine], the LC retention time was 11.7 min.
Consider `O=P(O)(O)OCC1OC(OC2OC(CO)C(O)C(O)C2O)C(O)C(O)C1O` (stereo unspecified) [Trehalose-6-phosphate], for which the LC retention time is 14.7 min.
Turning to `OCC1OC(OC2OC(CO)C(O)C(O)C2O)C(O)C(O)C1O` (stereo unspecified) [Trehalose], the LC retention time was 13.6 min.
Turning to `C[N+](C)(C)C(Cc1cnc[nH]1)C(=O)[O-]` (stereo unspecified) [Trimethyl-histidine (hercynine)], the LC retention time is 9.7 min.
The result for `C[N+](C)(C)CCCCC(N)C(=O)[O-]` (stereo unspecified) [Trimethyl-lysine] reads 20.7 min.
On to `C[N+](C)(C)C(Cc1c[nH]c2ccccc12)C(=O)[O-]` (stereo unspecified) [Trimethyl-tryptophan (hypaphorine)], for which the LC retention time is 6 min.
As to `NC(Cc1c[nH]c2ccccc12)C(=O)O` (stereo unspecified) [Tryptophan], the LC retention time was 8.7 min.
The result for `NC(Cc1ccc(O)cc1)C(=O)O` (stereo unspecified) [Tyrosine] reads 10.3 min.
The result for `CC(=O)NC1C(OP(=O)(O)OP(=O)(O)OCC2OC(n3ccc(=O)[nH]c3=O)C(O)C2O)OC(CO)C(O)C1O` (stereo unspecified) [UDP-acetyl-glucosamine] reads 12.8 min; that for `O=C(O)C1OC(OP(=O)(O)OP(=O)(O)OCC2OC(n3ccc(=O)[nH]c3=O)C(O)C2O)C(O)C(O)C1O` (stereo unspecified) [UDP-glucuronate], 16.5 min.
For `O=c1ccn(C2OC(COP(=O)(O)OP(=O)(O)O)C(O)C2O)c(=O)[nH]1` (stereo unspecified) [UDP], the LC retention time is 14 min.
The result for `O=c1ccn(C2OC(COP(=O)(O)O)C(O)C2O)c(=O)[nH]1` (stereo unspecified) [UMP] reads 12.6 min; that for `O=c1ccn(C2OC(COP(=O)(O)OP(=O)(O)OP(=O)(O)O)C(O)C2O)c(=O)[nH]1` (stereo unspecified) [UTP], 15.1 min.
The result for `O=c1cc[nH]c(=O)[nH]1` [Uracil] reads 7.2 min; that for `O=c1[nH]c(=O)c2[nH]c(=O)[nH]c2[nH]1` [Urate], 10.7 min.
The result for `O=c1ccn(C2OC(CO)C(O)C2O)c(=O)[nH]1` (stereo unspecified) [Uridine] reads 7.1 min; that for `CC(C)C(N)C(=O)O` (stereo unspecified) [Valine], 9.8 min.
For the compound `O=C(O)C=C(CC(=O)O)C(=O)O` [cis-Aconitate], the LC retention time was 15.5 min.
The result for `OC1C(O)C(O)C(O)C(O)C1O` (stereo unspecified) [myo-Inositol] reads 14.4 min.
